Target: bovine serum albumin (BSA) (Bos taurus, UniProt P02769)
Settings: BSA 0.02 mM, complex 2 mM, 60° C., pH 9, 24 h incubation; reference without complex = 1.0
Protocol: The hydrolysis of protein dirt was investigated using degradation of bovine serum albumin (BSA). […] The incubated material was then examined with the known method of SDS-PAGE with regard to the intensity of the band to be assigned to BSA. BSA incubated under the same conditions without the addition of complexes served as reference. The intensity values given in the following table are relative values based on the intensity of the band of the reference at t=24 h.

Sequence of bovine serum albumin (BSA) (P02769 25-607): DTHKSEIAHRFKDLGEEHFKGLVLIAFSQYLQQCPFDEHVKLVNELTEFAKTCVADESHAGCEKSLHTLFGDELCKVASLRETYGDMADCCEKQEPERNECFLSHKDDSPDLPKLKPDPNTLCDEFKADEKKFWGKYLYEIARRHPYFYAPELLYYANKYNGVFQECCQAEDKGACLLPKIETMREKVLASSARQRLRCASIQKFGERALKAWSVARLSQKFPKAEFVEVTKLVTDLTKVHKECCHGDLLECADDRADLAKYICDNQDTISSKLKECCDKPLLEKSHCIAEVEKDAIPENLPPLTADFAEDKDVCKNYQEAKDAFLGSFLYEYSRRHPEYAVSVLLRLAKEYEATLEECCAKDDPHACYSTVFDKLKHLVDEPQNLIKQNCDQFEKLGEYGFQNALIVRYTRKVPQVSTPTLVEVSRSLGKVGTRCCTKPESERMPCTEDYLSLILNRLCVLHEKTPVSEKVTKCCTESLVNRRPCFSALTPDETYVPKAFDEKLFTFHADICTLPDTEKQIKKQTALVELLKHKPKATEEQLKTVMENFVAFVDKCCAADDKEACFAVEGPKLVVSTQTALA

In the case of “Sc (III) Complex of 1,7-dioxa-4,10-diazacyclododecane-4,10-di(methyl(phenol)) [complex P1]”, the “Intensity (of the SDS-PAGE band assigned to BSA, relative to the reference band at t=24 h)” value is reported as 0.84.
